One assay deals with EGFR R84K or A265V. Description: pYtag response of GBM-associated mutant EGFRs in NIH 3T3 cells. The assay is classed as cell-based, mouse. The settings on record: 20 ng/ml, NIH 3T3 cells expressing R84K or A265V EGFR. The text has this:
To validate the prediction of our model, the dimerization affinity of EGFR was experimentally altered and signaling responses were monitored using pYtags. One can turn to glioblastoma multiform (GBM)-associated mutations in the extracellular domain of EGFR (R84K and A265V point mutations), which were previously shown to increase the dimerization affinity of EREG- and EPGN-bound receptors. These GBM-associated mutations were first modeled in EGFR by decreasing β and γ by 6-fold and 650-fold, respectively. […] NIH 3T3 cell lines expressing pYtag biosensors of EGFR variants harboring either the R84K or A265V mutation were then generated.
The data reveal ligand-dependent EGFR signaling dynamics at unprecedented temporal resolution and point to the dimerization affinity of ligand-bound receptors as a key parameter that governs these responses. More broadly, combining pYtags with mathematical modeling can shed mechanistic insight into the signaling dynamics of RTKs.

The next assay deals with EGFR (Homo sapiens, UniProt P00533). Put plainly: EGFR pYtag live-cell imaging: clearance of cytosolic ZtSH2 in NIH 3T3 cells.
The subject of assay [1] is ErbB2. Description: ErbB2 pYtag (with EGFR-Citrine) in NIH 3T3 cells: clearance of cytosolic ZtSH2. The assay is classed as cell-based. Conditions: NIH 3T3, required ITAMs on ErbB2 and co-expression of EGFR. How it is done: One advantage of the pYtag approach is its modularity: ITAMs can in principle be fused to the C-termini of many different RTKs and recruit ZtSH2 upon stimulation. Therefore, it was tested whether pYtags could be adapted to monitor the activity of receptors other than EGFR. pYtag biosensors were designed for two additional RTKs: 1) ErbB2, a ligandless member of the ErbB family that signals by heterodimerizing with ligand-bound EGFR; and 2) fibroblast growth factor receptor 1 (FGFR1), a non-ErbB family RTK. ErbB2 is a particularly challenging RTK to study because it can only be activated in conjunction with an additional RTK (e.g., EGFR), so Grb2-based biosensors would be unable to distinguish between the activity of EGFR and ErbB2.
Starting from NIH 3T3 cells expressing iRFP-ZtSH2, cell lines expressing either an ErbB2 pYtag (ErbB2-CD3ε-FusionRed), an FGFR1 pYtag (FGFR1-CD3ε-FusionRed), or ITAM-less variants of each were generated. For the ErbB2 case, cells with EGFR-Citrine were further transduced to express both required components of a functional receptor heterodimer (see FIG. 3, and FIGS. 4A-4B).
The pYtag approach is indeed modular, and this strategy can be readily adapted for monitoring the activation of distinct RTKs in individual cells.

The subject of another assay is EGFR and Erk signaling. Description: EGFR pYtag and ErkKTR in MCF10A clusters on soft substrata. The assay is classed as cell-based, human. How it is done:
At the tissue scale, the spatiotemporal distribution of RTK signaling can also be regulated by several processes including paracrine signaling, morphogen gradients, and the mechanical properties of the local microenvironment. It was therefore asked whether pYtags could be used to monitor RTK signaling in multicellular contexts.
To prepare polyacrylamide substrata, 1.5-mm-thick glass coverslips were pre-treated with glutaraldehyde. First, coverslips were treated with 0.1 N NaOH for 30 min, followed by rinsing with deionized water and air drying. Coverslips were then treated with 2% aminopropyltrimethoxysilane (Sigma Aldrich) in acetone for 30 min, washed three times with acetone, and left to air dry. Coverslips were treated with 0.5% glutaraldehyde (Sigma Aldrich) in PBS for 30 min, washed with deionized water, and left to air dry. Custom glass-bottom dishes were prepared by replacing the bottoms of 35 mm TCPS dishes with glutaraldehyde-treated coverslips, which were sealed using PDMS (Sigma Aldrich).
To investigate the dynamics of this spatial pattern, EGFR signaling was monitored using two live-cell biosensors: EGFR pYtag and a kinase translocation reporter for downstream signaling through Erk (ErkKTR).

For assay [2], the system named is ErbB2. Description: Multiplexed pYtags in NIH 3T3 cells: ErbB2 reporter (iRFP-ZtSH2; ErbB2-CD3ε-FusionRed). Type of assay: cell-based. Conditions: 100 ng/mL. The source says:
Having characterized an orthogonal pair of pYtags, it was recognized that these biosensors could be used to simultaneously monitor the activation of both EGFR and ErbB2. NIH 3T3 cells that co-expressed pYtags for EGFR (Clover-VISH2; EGFR-SLP76-BFP) and ErbB2 (iRFP-ZtSH2; ErbB2-CD3ε-FusionRed) were generated. […] VISH2 cleared from the cytosol almost immediately (<30 sec), indicating rapid phosphorylation of the EGFR C-terminal tail. […] Although the absolute magnitude of tSH2 biosensor clearance varied between cell lines (likely due to differences in affinity and expression level), the dynamics of EGFR and ErbB2 activation were highly reproducible in all cases, irrespective of the cell line or pYtag.

“EREG: epiregulin, low-affinity EGFR ligand”: in the assay with EGFR R84K or A265V, the “pYtag signaling response of GBM-associated mutant EGFR” value is recorded as “stronger response that gradually increased over time”. Also, the “pYtag signaling response of WT EGFR” value in the assay with EGFR (20 ng/ml, NIH 3T3 cells expressing WT EGFR) is “transient peak of activation and rapid plateau”. In addition, the “EGFR activity dynamics after low-affinity ligand” value in the assay with EGFR (varying doses, NIH 3T3 EGFR pYtag) was “rapid rise in EGFR activity followed by a plateau within minutes”.

Regarding “EGF: epidermal growth factor, high-affinity EGFR ligand (NSDSECPLSHDGYCLHDGVCMYIEALDKYACNCVVGYIGERCQYRDLKWWELR; Epidermal growth factor; UniProt P01133 971-1023, looked up)”, the “ZtSH2 response of ErbB2 pYtag-expressing cells” value in the assay on ErbB2 [1] was “clearance of ZtSH2 from the cytosol”. Moreover, in the assay with EGFR and Erk signaling, the “Delay in EGFR and Erk signaling between periphery and interior of clusters” value lay within 2 to 4 min; the “Delay of Erk responses behind EGFR responses” value is reported as around 4 min. Also, the “Time of ZtSH2 clearance from the cytosol (ErbB2 phosphorylation)” value in the assay on ErbB2 [2] is given as around 3 min.

The values are drawn from patent US20250283885A1, “MODULAR BIOSENSOR FOR RECEPTOR TYROSINE KINASE ACTIVITY” (The Trustees of Princeton University, priority 2024, published 2025).
